The values that follow come from article PMC3395220 (Journal of Medicinal Chemistry, 2012).

In experiment [1] the test system is HCC-2998. It counts as cell-based, human. Conditions: 10^Δ2-x, relative to compound 2.
Experiment [2] deals with SF-268. It counts as cell-based, human. Conditions: 10^Δ2-x, relative to compound 2.
Experiment [3] relates to ACHN. It counts as cell-based, human. Conditions: 10^Δ2-x, relative to compound 2.
The subject of experiment [4] is HT29. It counts as cell-based, human. Conditions: 10^Δ2-x, relative to compound 2.
Experiment [5] deals with MCF7. It counts as cell-based, human. Conditions: 10^Δ2-x, relative to compound 2.
In experiment [6] the test system is MDA-MB-435. It counts as cell-based, human. The following applies: 10^Δ2-x, relative to compound 2.
For experiment [7], the system named is COLO-205 (colon), A549 (non-small cell lung) and BXCP3 (pancreas). Briefly: cells. It counts as cell-based. Conditions: 72 h, read-out: average GI50 (50% of growth inhibition).
The test system of experiment [8] is panel of 12 tumor cell lines implanted in mice. Briefly: NCI hollow fiber assay. It counts as in vivo.
The subject of experiment [9] is NCI-H226. It counts as cell-based, human. The following applies: 10^Δ2-x, relative to compound 2.
Experiment [10] deals with HCT-116. It counts as cell-based, human. The following applies: 10^Δ2-x, relative to compound 2.
The test system of experiment [11] is U251. It counts as cell-based, human. Conditions: 10^Δ2-x, relative to compound 2.
The subject of experiment [12] is EWS-FLI1 transcription factor. Conditions: compared to 1, as opposed to a non-specific promoter; cited from earlier work.
Experiment [13] relates to SNB-75. It counts as cell-based, human. The following applies: 10^Δ2-x, relative to compound 2.
The subject of experiment [14] is CAKI-1. It counts as cell-based, human. Conditions: 10^Δ2-x, relative to compound 2.
Experiment [15] has as its system KM12. It counts as cell-based, human. Conditions: 10^Δ2-x, relative to compound 2.

Molecules are shown by their SMILES.

For the compound `CO[C@@H]([C@@H]1Cc2cc3cc(O[C@H]4C[C@@H](O[C@H]5C[C@@H](O)[C@H](O)[C@@H](C)O5)[C@H](O)[C@@H](C)O4)c(C)c(O)c3c(O)c2C(=O)[C@H]1O[C@H]1C[C@@H](O[C@H]2C[C@@H](O[C@H]3C[C@H](O)[C@H](O)[C@@H](C)O3)[C@H](O)[C@@H](C)O2)[C@H](O)[C@@H](C)O1)[C@@H](O)C(C)=O` [Compound 9, demycarosyl-3D-β-D-digitoxosyl-mithramycin SK], the activity improvement factor is 3.76 in [1]; 1.40 in experiment [2]; 4.47 in [3]; 3.55 in [4]; 0.92 in [5]; 1.82 in experiment [6]. For the same compound, the activity improvement factor in experiment [9] was found to be 2.26; in [10] it was 1.17; in [11] it was 1.26; in experiment [13] it was 0.93; in experiment [14], 1.64; in experiment [15], 1.66. In addition, in experiment [7], the GI50 is 300 to 1300 nM. Also, the “hollow fiber assay total score” value in [8] (12 tumor cell lines, daily ip for four days) is given as 66/96. Moreover, the “hollow fiber assay intraperitoneal score” value in experiment [8] (intraperitoneal implants) is on record as 36/48. In addition, the “hollow fiber assay subcutaneous score” value in experiment [8] (subcutaneous implants) was 30/48. Further, in [12], the “inhibition of luciferase activity driven by NRB01” value is given as “inhibits more effectively”.

The GI50 is the concentration at which growth is held to half of that of the control.
